# According to PMC11786100, “Chronic GIPR agonism results in pancreatic islet GIPR functional desensitisation” (Molecular Metabolism, 2025):
# Read-outs that look alike come from different tables or passages of the source.
# How the values were obtained:
# [1] = Peptide stability in complete medium with dispersed islet cells (cAMP bioactivity assay); assay type: in vitro ADME, mouse
# Procedure: AD-293 cells were added to a 12-well plate and maintained in 2 ml complete DMEM. 1 μg of specified plasmid DNA was added to each well alongside Lipofectamine 2000 (Thermo Fisher, UK). cAMP production was quantified 24 hours following transfection using homogenous time resolved fluorescence (HTRF), specifically the cAMP-Gs Dynamic 2 kit (Cisbio, France). Peptides and cells were diluted in DMEM + 1% P/S + 0.1% BSA. For peptide stability testing, cells, fresh peptide and peptide incubated with dispersed islet cells were diluted in RPMI-1640 (Thermo Fisher, UK) + 10% FBS + 1% P/S. 10 μl of peptide and 10 μl of cell suspension were added in duplicate to an opaque 96-well plate (Grenier Bio-One, Austria) and incubated at 37°C for 30 minutes. 10 μl of cAMP-d2 and anti-cAMP cryptate, both diluted in lysis buffer, were added in quick succession as per the manufacturer’s protocol. The plates were then incubated at room temperature for 45 minutes and read using the SpectraMax i3x (Molecular Devices, US).
# Three-parameter curve fitting was applied.
# [2] = target: T1, GLP-1R (Mus musculus, UniProt O35659); test: Ex vivo islet GLP-1R desensitisation (pre-treat/washout/rechallenge cAMP); assay type: cell-based; details: dispersed islets, cADDis
# T1 construct: from tissue; host or cells: dispersed mouse pancreatic islets
# T1 sequence (O35659 22-463): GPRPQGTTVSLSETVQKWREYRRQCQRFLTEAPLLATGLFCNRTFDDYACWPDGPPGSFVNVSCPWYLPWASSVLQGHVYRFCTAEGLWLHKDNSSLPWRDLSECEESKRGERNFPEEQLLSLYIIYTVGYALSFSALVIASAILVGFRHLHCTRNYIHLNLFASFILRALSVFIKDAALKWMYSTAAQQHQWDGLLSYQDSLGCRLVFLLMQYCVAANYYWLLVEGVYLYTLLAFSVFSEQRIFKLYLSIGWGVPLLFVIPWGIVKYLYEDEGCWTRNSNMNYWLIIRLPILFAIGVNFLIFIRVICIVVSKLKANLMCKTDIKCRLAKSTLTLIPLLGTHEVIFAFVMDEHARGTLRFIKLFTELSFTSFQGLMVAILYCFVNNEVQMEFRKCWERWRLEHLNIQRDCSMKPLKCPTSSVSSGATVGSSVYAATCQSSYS
# Procedure: (§1) Primary cultures of mouse hypothalamic neurons and dispersed pancreatic islets were transduced with the Green Up cADDis biosensor (Montana Molecular, US). Pancreatic islets from CAMPER^Pdx−1-CreERT2 and CAMPER^Som-Cre mice were not transduced. Cells were pre-treated with peptides as specified, dissolved in culture media. Following 4 h or overnight incubation and a 1-hour washout period, cells were imaged using an epifluorescence microscope at baseline (t = 3 min), following peptide addition (t = 10 min, unless specified otherwise), and following 3-isobutyl-1-methylxanthine (IBMX) (500 μM) and forskolin (FSK) (50 μM) addition (t = 3 min) to maximally stimulate the sensor. In pre-treatment experiments, islet cell fluorescence was normalised to the IBMX/FSK response which was set as 100%. In non-pre-treatment experiments, islet and neuronal cell fluorescence was normalised to both the baseline and IBMX/FSK response. The area-under-the-curve (AUC) for each cell was quantified. […]
# (§2) cAMP quantification from the raw islet/neuronal images was performed using Fiji v1.54f (NIH). […] The fluorescence intensity of each ROI was measured at each time point. In pre-treatment experiments, islet cell fluorescence was normalised to the maximal IBMX/FSK response which was set as 100%. […] The AUC during peptide stimulation for each cell was quantified. […]
# [3] = test system: murine hypothalamic neurons; test: cADDis cAMP imaging in primary hypothalamic neurons; assay type: cell-based, mouse; details: 5-minute stimulation, n=4
# Procedure: (§3) Primary cultures of mouse hypothalamic neurons and dispersed pancreatic islets were transduced with the Green Up cADDis biosensor (Montana Molecular, US). Pancreatic islets from CAMPER^Pdx−1-CreERT2 and CAMPER^Som-Cre mice were not transduced. Cells were pre-treated with peptides as specified, dissolved in culture media. Following 4 h or overnight incubation and a 1-hour washout period, cells were imaged using an epifluorescence microscope at baseline (t = 3 min), following peptide addition (t = 10 min, unless specified otherwise), and following 3-isobutyl-1-methylxanthine (IBMX) (500 μM) and forskolin (FSK) (50 μM) addition (t = 3 min) to maximally stimulate the sensor. In pre-treatment experiments, islet cell fluorescence was normalised to the IBMX/FSK response which was set as 100%. In non-pre-treatment experiments, islet and neuronal cell fluorescence was normalised to both the baseline and IBMX/FSK response. The area-under-the-curve (AUC) for each cell was quantified. Full details of isolation, transduction, plating, imaging and image analysis is provided in the supplementary methods.
# Primary cultures of hypothalamic neurons were prepared from 6-week-old male and female mice as described previously [2*]. A minor difference was that the neuronal pellet was resuspended in Neurobasal-A medium containing 0.25% Glutamax, 2% B27 and 25 ng/ml NGF (all Thermo Fisher, UK) (neuronal culture media).
# Hypothalamic neurons: 100 μL cell suspension of neurons in neuronal culture media was seeded on 35 mm petri dish (MatTek Corporation), pre-coated with 0.01% poly-D-lysine hydrobromide. […]
# cAMP quantification from the raw islet/neuronal images was performed using Fiji v1.54f (NIH). […] The fluorescence intensity of each ROI was measured at each time point. In pre-treatment experiments, islet cell fluorescence was normalised to the maximal IBMX/FSK response which was set as 100%. For non-pre-treatment experiments, neuronal and islet cell fluorescence were normalised to both the baseline and maximal IBMX/FSK response. The AUC during peptide stimulation for each cell was quantified. […]
# [4] = test system: dispersed islet cells; test: cADDis cAMP concentration-response in dispersed islets; assay type: cell-based, mouse; details: for EC50: three-parameter fit, n=5, read-out: calculated EC50, cAMP in dispersed islets
# Procedure: as §3
# Dispersed islets: A cell suspension of dispersed islets in RPMI-1640 + 10% FBS + 1% P/S (islet complete media) was seeded onto square 96 well µ-plates (Ibidi, UK), coated with 0.01% poly-D-lysine hydrobromide (Sigma-Aldrich, UK) and 25 µg/ml mouse laminin (Thermo Fisher, UK). For cADDis experiments, cells were transduced with the Green Up cADDis biosensor (15 μL of cADDis, 1.5 μL of sodium butyrate per well: Montana Molecular, US). Cells were incubated overnight (37°C, 95%:5% O2:CO2 ratio).
# Cells were imaged in Krebs buffer with 6 mM glucose and 0.1% BSA (unless 10% FBS was specified) at 37°C using an automated epifluorescence microscope (modified Nikon Ti-2E with LED illumination). Multiple fields of view (FOV) were imaged in parallel (for islets, multiple wells of a 96 well plate were imaged in parallel), allowing hundreds to thousands of cells to be imaged every minute throughout the time course. For all acquisitions, the first three minutes were baseline recording pre-peptide addition and the last three minutes were a positive control following IBMX (500 μM) and forskolin (50 μM) addition to maximally stimulate the sensor.
# cAMP quantification from the raw islet/neuronal images was performed using Fiji v1.54f (NIH). For each acquisition, a flat-field (BaSiC [3*]) correction was applied, and intensity thresholding enabled cell-containing regions to be identified as regions-of-interest (ROIs). The fluorescence intensity of each ROI was measured at each time point. In pre-treatment experiments, islet cell fluorescence was normalised to the maximal IBMX/FSK response which was set as 100%. For non-pre-treatment experiments, neuronal and islet cell fluorescence were normalised to both the baseline and maximal IBMX/FSK response. The AUC during peptide stimulation for each cell was quantified. Neurons with an AUC greater than 75 (representing a response 15 % of the maximum IBMX/FSK response) were deemed responder neurons.
# We aimed to determine appropriate pre-treatment doses of GIPR agonists which would produce detectable cAMP responses, indicating target engagement, and were compatible with an extended incubation in complete medium, which could influence ligand availability via binding to serum proteins. We first performed concentration-response analysis in dispersed islets transduced with cADDis in the presence of 10% FBS (Figure S2A, B, D, E).
# To determine a sensible re-challenge dose of GIPR agonists, a further concentration-response analysis was conducted in cADDis-transduced dispersed islets in imaging buffer (Krebs buffer + 6 mM glucose + 0.1% BSA, i.e. without FBS) (Figure S2C, F). […] Therefore, 1 μM of GIP108 and 100 nM of GIP were chosen as peri-maximal re-stimulation doses for the remaining islet cAMP assays.
# GLP-1R agonist pre-treatment dose selection was performed concurrently with GIPR agonist dose selection.
# [5] = test system: β2-adrenergic receptor; test: Ex vivo islet heterologous desensitisation, isoproterenol rechallenge cAMP; assay type: cell-based, mouse; details: 24-hour pre-treatment with GIP108 (1 μM); dispersed islets, cADDis, n=3
# Procedure: as §1, §2
# [6] = Pharmacokinetic study in pigs; assay type: in vivo; details: 0.5 mg/pig subcutaneously, male large white pigs, n = 3
# Procedure: Pharmacokinetic testing of GIP108, administered subcutaneously at 0.5 mg/pig in male large white pigs, was outsourced to Pharmaron Ltd., UK. Full details are stated elsewhere.
# [7] = imaging buffer (Krebs + 6 mM glucose + 0.1% BSA, without FBS)
# [8] = in the presence of 10% FBS, stepwise addition
compound,measurement,setting,value
GLP-1(7–36)·NH2,concentration remaining from 500 nM after 24 hours,[1],0.177 nM
same,GLP-1R desensitisation after 4 h pre-treatment,"[2]; pre-treatment GLP-1 (10 nM), rechallenge GLP-1 (1 nM), n = 3","partial GLP-1R desensitisation, this was not statistically significant"
same,cAMP response of hypothalamic neurons,[3]; 10 and 100 nM,significant responses
same,doses above which cAMP responses were detectable,[4]; [7],above 0.1 nM
same,doses above which cAMP responses were detectable,[4]; in the presence of 10% FBS,above 0.1 nM
same,EC50,[4]; [8],0.000295 µM
CC[C@H](C)[C@H](NC(=O)[C@H](CO)NC(=O)[C@H](Cc1ccc(O)cc1)NC(=O)[C@H](CC(=O)O)NC(=O)[C@H](CO)NC(=O)[C@@H](NC(=O)[C@H](Cc1ccccc1)NC(=O)[C@@H](NC(=O)CNC(=O)[C@H](CCC(=O)O)NC(=O)C(C)(C)NC(=O)[C@@H](N)Cc1ccc(O)cc1)[C@@H](C)O)[C@@H](C)CC)C(=O)N[C@@H](C)C(=O)N[C@@H](CC(C)C)C(=O)N[C@@H](CC(=O)O)C(=O)N[C@@H](CCCCN)C(=O)N[C@H](C(=O)N[C@@H](Cc1c[nH]cn1)C(=O)N[C@@H](CCC(N)=O)C(=O)N[C@@H](CCC(N)=O)C(=O)N[C@@H](CC(=O)O)C(=O)N[C@@H](Cc1ccccc1)C(=O)N[C@H](C(=O)N[C@@H](CC(N)=O)C(=O)N[C@@H](Cc1c[nH]c2ccccc12)C(=O)N[C@@H](CC(C)C)C(=O)N[C@@H](CC(C)C)C(=O)N[C@@H](C)C(=O)N[C@@H](CCC(N)=O)C(=O)N[C@@H](CCCCN)C(=O)NCC(=O)N[C@@H](CCCCNC(=O)CC[C@H](NC(=O)CCCCCCCCCCCCCCCCCCC(=O)O)C(=O)O)C(=O)N[C@@H](CCCCN)C(=O)N[C@@H](CC(N)=O)C(=O)N[C@@H](CC(=O)O)C(=O)N[C@@H](Cc1c[nH]c2ccccc12)C(=O)N[C@@H](CCCCN)C(=O)N[C@@H](Cc1c[nH]cn1)C(=O)N[C@@H](CC(N)=O)C(=O)N[C@H](C(=O)N[C@H](C(=O)N[C@@H](CCC(N)=O)C(=O)O)[C@@H](C)O)[C@@H](C)CC)C(C)C)[C@@H](C)CC [GIP108],stability at 24 hours,"[1]; 1 μM in complete medium with dispersed islet cells, cAMP bioactivity in mouse GIPR AD-293 cells",remained partially stable at 24 hours
same,concentration remaining from 500 nM after 24 hours,"[1]; peptide at 1 μM in complete medium (RPMI-1640 + 10% FBS + 1% P/S) with dispersed islet cells, 24 h, concentrations halved during assay, read-out cAMP in mouse GIPR-expressing AD-293 cells, n=4",215 nM
same,cAMP response to GLP-1 (100 nM) after GIP108 pre-treatment,"[2]; 24-hour pre-treatment with GIP108 (1 μM), n=3",small but significant decrease
same,cAMP response to isoproterenol (1 μM) after GIP108 pre-treatment,[5],remained intact
same,half-life,[6],extended half-life
same,cAMP response of hypothalamic neurons,[3]; 100 nM and 1 μM,failed to show detectable responses
same,doses above which cAMP responses were detectable,[4]; [7],above 10 nM
same,EC50,"[4]; imaging buffer (Krebs buffer + 6 mM glucose + 0.1% BSA, without FBS)",0.218 µM
same,doses above which cAMP responses were detectable,[4]; in the presence of 10% FBS,above 100 nM
same,EC50,[4]; [8],1.96 µM
